Values of other authors, collected in patent publication US20120189739A1, “Naturally-Sweetened Reduced-Calorie Base Syrup Compositions and Compositions Sweetened Therewith” (IMPERIAL SUGAR COMPANY, priority 2010, published 2012).

Settings: Prakash et al. 2008; Kinghorn et al. 1999

SMILES	times sweeter than sucrose
C=C1C[C@@]23CC[C@H]4[C@@](C)(CCC[C@@]4(C)C(=O)O[C@@H]4O[C@H](CO)[C@@H](O)[C@H](O)[C@H]4O)[C@@H]2CC[C@]1(O[C@@H]1O[C@H](CO)[C@@H](O)[C@H](O[C@@H]2O[C@H](CO)[C@@H](O)[C@H](O)[C@H]2O)[C@H]1O[C@@H]1O[C@H](CO)[C@@H](O)[C@H](O)[C@H]1O)C3 [rebaudioside A]	200-300 times
C=C1C[C@@]23CC[C@H]4[C@@](C)(CCC[C@@]4(C)C(=O)O[C@@H]4O[C@H](CO)[C@@H](O)[C@H](O)[C@H]4O)[C@@H]2CC[C@]1(O[C@@H]1O[C@H](CO)[C@@H](O)[C@H](O)[C@H]1O[C@@H]1O[C@H](CO)[C@@H](O)[C@H](O)[C@H]1O)C3 [stevioside]	about 200 times
